{"source": "paper PMC3314937", "about": "“Identifying improved TSPO PET imaging probes through biomathematics: The impact of multiple TSPO binding sites in vivo” (Neuroimage, 2012)", "key": {"[1]": {"system": "TSPO", "parameters": "method as in Owen et al. (2010, 2011)", "details": "37 °C, ref Owen et al. (2010, 2011), cited from earlier work; for Bmax-H: HABs, ^3H-PBR28 values also used for PBR111 and DPA713, ^3H-PK11195 for PK11195; for Bmax-L: LABs; for Bmax-M: MABs, both high and low affinity sites, Bmax_H used for PK11195"}, "[2]": {"assay": "in vitro", "details": "Landrace, pig, pH 7.4", "experimental": "(§1) The fP and fND were measured from Landrace pig tissue (blood and brain — obtained from Charles River Laboratories, Tranent, Scotland) using equilibrium dialysis ([Summerfield et al., 2006]). In brief, the cold test compounds were spiked into plasma or brain homogenate at a concentration of 1 μg/g and dialysed against phosphate buffered saline (PBS, pH 7.4) for 5 h at 37 °C. Aliquots (20–50 μL) of plasma, brain and dialysate were taken and extracted using acetonitrile containing internal standard, followed by LC–MS/MS analysis. The free fractions were determined as the concentration ratio of analyte in dialysate to that in plasma or brain."}, "[3]": {"biological_target": "TSPO", "details": "^3H-PK11195, 37 °C, ref Owen et al. (2010, 2011), cited from earlier work"}, "[4]": {"system": "TSPO", "assay": "competition assays with ^3H-PK11195 for each binding class", "parameters": "species or system human"}, "[5]": {"assay": "equilibrium dialysis, free fractions in plasma and brain tissue", "details": "1 μg/g, dialysis against PBS pH 7.4, 5 h, 37 °C", "experimental": "as §1"}}, "note": "Read-outs that look alike come from different tables or passages of the source. Marks after values point to notes of the source that are not given here.", "data": [{"smiles": "CC[C@@H](C)N(C)C(=O)c1cc2ccccc2c(-c2ccccc2Cl)n1", "note": "[^11C-(R)-PK11195]", "values": [{"measurement": "Bmax-H", "setting": "[1]", "value": "433 ± 154 (n = 9) nM"}, {"measurement": "Bmax-L", "setting": "[1]", "value": "506 ± 131 (n = 5) nM"}, {"measurement": "Bmax-M", "setting": "[1]", "value": "433 ± 154 ^b (n = 9) nM"}, {"measurement": "fraction unbound at 5 h, 1 μg/g", "setting": "[2]; brain homogenate", "value": "0.01 ± 0.002"}, {"measurement": "fraction unbound at 5 h, 1 μg/g", "setting": "[2]; plasma", "value": "0.14 ± 0.039"}]}, {"smiles": "CCN(CC)C(=O)Cc1c(-c2ccc(O[11CH3])cc2)nn2c(C)cc(C)nc12", "note": "[^11C-DPA713]", "values": [{"measurement": "Bmax-H", "setting": "[1]", "value": "193 ± 66 (n = 6) nM"}, {"measurement": "Bmax-L", "setting": "[1]", "value": "99.4 ± 35 (n = 5) nM"}, {"measurement": "Bmax-M", "setting": "[1]", "value": "186 ± 37 (n = 4) nM"}]}, {"smiles": "CCN(CC)C(=O)Cc1c(-c2ccc(OCCCF)cc2)nc2ccc(Cl)cn12", "note": "[^18F-PBR111]", "values": [{"measurement": "Ki", "setting": "[3]; high affinity site (HABs), read-out: Ki-H", "value": "15.6 ± 3.7", "unit": "nM"}, {"measurement": "Ki", "setting": "[3]; low affinity site (LABs), read-out: Ki-L", "value": "61.8 ± 10.7", "unit": "nM"}]}, {"smiles": "CCN(CC)C(=O)Cc1c(-c2ccc(OCCC[18F])cc2)nc2ccc(Cl)cn12", "note": "[^18F-PBR111]", "values": [{"measurement": "affinity ratio (high:low binding site)", "setting": "[4]", "value": "~ 4"}, {"measurement": "Bmax-H", "setting": "[1]", "value": "193 ± 66 (n = 6) nM"}, {"measurement": "Bmax-L", "setting": "[1]", "value": "99.4 ± 35 (n = 5) nM"}, {"measurement": "Bmax-M", "setting": "[1]", "value": "186 ± 37 (n = 4) nM"}, {"measurement": "fND (free fraction in tissue)", "setting": "[5]; pig brain homogenate", "value": "0.06 ± 0.005 (n = 6)"}, {"measurement": "fp (free fraction in plasma)", "setting": "[5]; pig plasma", "value": "0.19 ± 0.018 (n = 6)"}]}]}
